The test system of assay [1] is AsPC-1/Cas9 cell line. Briefly: AsPC-1/Cas9 growth inhibition assay. The format is cell-based, human. The note with it: Homo sapiens, ASPC1, 120 h, AsPC-1/Cas9 cells, 5 days culture, CellTiter Glo 2.0; read-out: Absolute IC50—Day 5 (nM) AsPC-1 Cas9. How it is done:
The human pancreatic cancer cell line AsPC-1 (ATCC Number CRL1682) was infected with Edit-R Lentiviral hCMV-Blast-Cas9 Nuclease Particle (Dharmacon, VCAS10124) in the presence of 8 μg/ml of Hexadimethrine bromide (Sigma, H9268), and after 24 hours it was exposed to 10 μg/ml of Blastcidin S (Thermo, A11139) to remove the uninfected cells, thereby establishing an AsPC-1/Cas9 cell line. The cells were maintenance cultured in a 5% CO2 incubator (37° C.) using RPMI-1640 (FujiFilm-Wako Pure Chemical Industries) containing 10% fetal bovine serum (FBS: SIGMA 173012) and penicillin/streptomycin (FujiFilm-Wako Pure Chemical Industries) (hereunder referred to simply as “culture medium”). After adding 45 μL of AsPC-1/Cas9 cell suspension prepared to 2.0×10^4 cells/mL using culture medium into each well of a 384-well plate (Greiner 781091), the cells were cultured overnight in a 5% CO2 incubator (37° C.). On the following day, 5 μL of the test substance diluted with culture medium was added to each well, and culturing was continued for 5 days in a 5% CO2 incubator (37° C.). Next, 25 μL of CellTiter Glo™ 2.0 (Promega) was added to each well, and the plate contents were mixed for 5 minutes using a plate mixer. The plate was stationed for 10 minutes at room temperature while shielded from light, and then the luminous intensity was measured with an ENVISION™ (Perkin-Elmer). The luminescence value of the wells with addition of test substance was determined as a relative value, with 100% as the luminescence value of the wells with cells but without addition of the test substance, and 0% as the luminescence value of the wells without cells. A plot of test substance concentration against luminescence value % approximated a 4-parameter logistic curve, and the test substance concentration necessary for 50% inhibition of cell growth (Absolute IC50) was calculated, and is shown in Table 4.
Background: Cellular ATP, detected with luciferase, serves as a proxy for viable cell number.

The target in assay [2] is HiBiT tagged BRD4-BD1 protein in HEK293/LgBiT/hPGK/HiBiT-BRD4-BD1 cells (Homo sapiens, UniProt O60885). Briefly: BET BD1 domain degradation assay. The note with it: concentration for 50% reduction in HiBiT-BRD4-BD1 protein level, 3 hours, read-out: Absolute DC50—3 h (nM) HEK293_HiBiT-BRD4-BD1. The format is cell-based. Set-up: HiBit-linker-BRD4 BD1(1-209); host or cells: HEK293 (ATCC CRL-1573) stably transduced with LgBiT and HiBiT-BRD4-BD1. An excerpt: HEK293/LgBiT/hPGK/HiBiT-BRD4-BD1 cells were established by introducing LgBiT and HiBiT-BRD4-BD1 into the human fetus renal cell line HEK293 (ATCC Number CRL-1573). LgBiT was introduced using lentivirus vector LV[Exp]-Bsd-EFS>{LgBiT}, and HiBiT-BRD4-BD1 was introduced with lentivirus vector LV[Exp]-Puro-hPGK>{HiBit-linker-BRD4 BD1(1-209)}. The vector plasmids LV[Exp]-Bsd-EFS>{LgBiT} and LV[Exp]-Puro-hPGK>{HiBit-linker-BRD4_BD1(1-209)} were constructed by VectorBuilder Co. The lentivirus was produced using a Mission Lentivirus Packaging Mix (Sigma) according to the manufacturer's protocol. Viral infection and drug selection of infected cells were carried out by the following published method (Akagi T. et. al, PNAS 2003; 100:13567-72). The cells were maintenance cultured in a 5% CO2 incubator (37° C.), using culture medium. A 45 μL portion of cell suspension of HEK293/LgBiT/hPGK/HiBiT-BRD4-BD1 cells prepared to 6.7×10^4 cells/mL using culture medium was added to each well of a collagen I-coated 384-well plate (Falcon 356667), and the cells were cultured overnight in a 5% CO2 incubator (37° C.). On the following day, 5 μL of test substance diluted with RPMI-1640 (FujiFilm-Wako Pure Chemical Industries) containing 10% fetal bovine serum (FBS: SIGMA 173012) and penicillin/streptomycin (FujiFilm-Wako Pure Chemical Industries) was added to each well, and culturing was continued for 3 hours in a 5% CO2 incubator (37° C.). The luminous intensity was measured using a Nono-Glo HiBiT Lytic Detection System (Promega), and the intracellular HiBiT tagged BRD4-BD1 protein level was calculated. After culturing, 25 μL of measuring reagent was added to each well and the plate contents were mixed for 5 minutes using a plate mixer. The plate was stationed for 10 minutes at room temperature while shielded from light, and then the luminous intensity was measured with an ENVISION′ (Perkin-Elmer). The luminescence value of the wells with addition of test substance was determined as a relative value, with 100% as the luminescence value of the wells with cells but without addition of the test substance, and 0% as the luminescence value of the wells without cells. A plot of test substance concentration against luminescence value % approximated a 4-parameter logistic curve, and the test substance concentration necessary for 50% reduction in protein level (Absolute DC50) was calculated and is shown in Table 4.
For orientation: With HiBiT, luminescence reflects the tagged protein that the partner subunit can reach.

Regarding `COc1ccc(C(=O)NC2(C)CCN(C3CCN(c4nc(C(CO)(CC(C)C)c5cccs5)c5cc(-c6cn(C)c(=O)c7[nH]ccc67)ccc5n4)CC3)CC2)cc1N1CCC(=O)NC1=O` (stereo not shown) [Example 125, 3-(2,4-Dioxotetrahydropyrimidine-1(2H)-yl)-N-(1′-(4-(1-hydroxy-4-methyl-2-(thiophen-2-yl)pentan-2-yl)-6-(6-methyl-7-oxo-6,7-dihydro-1H-pyrrolo[2,3-c]pyridin-4-yl)quinazolin-2-yl)-4-methyl-[1,4′-bipiperidin]-4-yl)-4-methoxybenzamide], the IC50 in assay [1] is 0.2 nM. Moreover, the DC50 in assay [2] was 0.19 nM.

On to `CCCC(CO)(CCC)c1nc(N2CCC(OC3CCN(C(=O)c4ccc(OC)c(N5CCC(=O)NC5=O)c4)CC3)CC2)nc2ccc(-c3cn(C)c(=O)cc3OC)cc12` [Example 126, 1-(5-(4-((1-(4-(4-(Hydroxymethyl)heptan-4-yl)-6-(4-methoxy-1-methyl-6-oxo-1,6-dihydropyridin-3-yl)quinazolin-2-yl)piperidin-4-yl)oxy)piperidine-1-carbonyl)-2-methoxyphenyl)dihydropyrimidine-2,4(1H,3H)-dione], for which the IC50 in assay [1] is 0.084 nM. In assay [2], the DC50 was 0.05 nM.

As to `Cc1ccc(C(=O)N2C[C@H](C)N(C3CCN(c4nc(C(CO)(OC5CC5)c5cccc(O)c5)c5cc(-c6cn(C)c(=O)c7[nH]ccc67)ccc5n4)CC3)C[C@H]2C)cc1N1CCC(=O)NC1=O` (stereo partly drawn) [Example 127, 1-(5-((2R,5S)-4-(1-(4-(1-Cyclopropoxy-2-hydroxy-1-(3-hydroxyphenyl)ethyl)-6-(6-methyl-7-oxo-6,7-dihydro-1H-pyrrolo[2,3-c]pyridin-4-yl)quinazolin-2-yl)piperidin-4-yl)-2,5-dimethylpiperazine-1-carbonyl)-2-methylphenyl)dihydropyrimidine-2,4-(1H,3H)-dione], the half-inhibitory concentration (IC50) in assay [1] is 0.17 nM. Moreover, the DC50 in assay [2] was found to be 0.6 nM.

Regarding `COc1ccc(C(=O)NC2(C)CCN(C3CCN(c4nc(C(CO)(OC5CC5)c5cccc6ccccc56)c5cc(-c6cn(C)c(=O)c7[nH]ccc67)ccc5n4)CC3)CC2)cc1N1CCC(=O)NC1=O` (stereo not shown) [Example 128, N-(1′-(4-(1-Cyclopropoxy-2-hydroxy-1-(naphthalen-1-yl)ethyl)-6-(6-methyl-7-oxo-6,7-dihydro-1H-pyrrolo[2,3-c]pyridin-4-yl)quinazolin-2-yl)-4-methyl-[1,4′-bipiperidin]-4-yl)-3-(2,4-dioxotetrahydropyrimidine-1(2H)-yl)-4-methoxybenzamide], the half-maximal inhibitory concentration (IC50) in assay [1] is 0.32 nM. Besides, the half-maximal degradation concentration (DC50) in assay [2] is 0.25 nM.

For `COc1ccc(-n2cc(CN3CCN(CC4CCN(c5nc(C(CO)(OC6CC6)c6ccccc6)c6cc(-c7cc(C)c(=O)n(C)c7)ccc6n5)CC4)CC3)nn2)cc1N1CCC(=O)NC1=O` (stereo not shown) [Example 130, 1-(5-(4-((4-((1-(4-(1-Cyclopropoxy-2-hydroxy-1-phenylethyl)-6-(1,5-dimethyl-6-oxo-1,6-dihydropyridin-3-yl)quinazolin-2-yl)piperidin-4-yl)methyl)piperazin-1-yl)methyl)-1H-1,2,3-triazol-1-yl)-2-methoxyphenyl)-dihydropyrimidine-2,4(1H,3H)-dione], the IC50 in assay [1] amounted to 0.98 nM. Besides, the DC50 in assay [2] stood at 0.19 nM.

Turning to `COc1ccc(C#CCNC2(C)CCN(C3CCN(c4nc([C@@](COCNC(=O)[C@H](CC(N)=O)NC(C)=O)(OC5CC5)c5ccccc5)c5cc(-c6cn(C)c(=O)c7[nH]ccc67)ccc5n4)CC3)CC2)cc1N1CCC(=O)NC1=O` [Example 131], in assay [1], the IC50 was found to be 4.5 nM. Also, in assay [2], the 50% degradation concentration (DC50) was 11 nM.

Take `COc1ccc(C#CCNC2(C)CCN(C3CCN(c4nc([C@@](CO)(OC5CC5)c5ccccc5)c5cc(-c6cn(C)c(=O)c7[nH]ccc67)ccc5n4)CC3)CC2)cc1N1CCC(=O)N(CNC(=O)[C@H](CC(=O)O)NC(C)=O)C1=O` [Example 138, (S)-3-Acetamide-4-(((3-(5-(3-((1′-(4-((S)-1-cyclopropoxy-2-hydroxy-1-phenylethyl)-6-(6-methyl-7-oxo-6,7-dihydro-1H-pyrrolo[2,3-c]pyridin-4-yl)quinazolin-2-yl)-4-methyl-[1,4′-bipiperidin]-4-yl)amino)prop-1-yn-1-yl)-2-methoxyphenyl)-2,6-dioxotetrahydropyrimidine-1(2H)-yl)methyl)amino)-4-oxobutanoic acid]: the half-maximal inhibitory concentration (IC50) in assay [1] was found to be 41 nM. Also, in assay [2], the DC50 was greater than 100 nM.

Turning to `COc1ccc(C#CCNC2(C)CCN(C3CCN(c4nc(C(CO)(OC5CC5)c5ccccc5)c5cc(-c6cn(C)c(=O)c7[nH]ccc67)ccc5n4)CC3)CC2)cc1N1CCC(=O)NC1=O` (stereo not shown) [Example 144, 1-(5-(3-((1′-(4-(1-Cyclopropoxy-2-hydroxy-1-phenylethyl)-6-(6-methyl-7-oxo-6,7-dihydro-1H-pyrrolo[2,3-c]pyridin-4-yl)quinazolin-2-yl)-4-methyl-[1,4′-bipiperidin]-4-yl)amino)prop-1-yn-1-yl)-2-methoxyphenyl)dihydropyrimidine-2,4(1H,3H)-dione], the half-inhibitory concentration (IC50) in assay [1] is 0.13 nM. The half-maximal degradation concentration (DC50) in assay [2] was 0.11 nM.

Usually IC50 stands for the concentration that gives 50% inhibition. The term DC50 denotes the midpoint of the concentration-degradation curve.

The values above are taken from patent US20240148895A1, “ANTIBODY-DRUG CONJUGATE” (Eisai R&D Management Co., Ltd., priority 2022, published 2024).
